Three compounds from patent US20240034753A1, “THERAPEUTIC PEPTIDES” (COHBAR, INC., priority 2020, published 2024) can be followed below.

Broadly, the viability is a per cent measure of how many cells are alive, often set against a control.

The test system of one series is C2C12 Mouse Myoblasts. The experiment in a line: Glucose utilization (glucose remaining in medium). The following applies: metformin 1 mM, 18-22 hours. In kind it is cell-based. Here is the method: The effect of the peptides on glucose metabolism can be assessed using an assay of glucose utilization in cultured cells such as mouse myoblasts. Peptides were initially prepared as 10 mM stock in DMSO and used at a final concentration of 10 μM (0.1% DMSO). C2C12 mouse myoblast cell line was purchased from American Type Culture Collection (Manassas, VA). C2C12 cultures were maintained at 37° C. in a humidified atmosphere of 5% CO2/95% air with medium changes every second day. C2C12 cells were grown in DMEM (1 g/L glucose) supplemented with 10% FBS with 100 IU/ml penicillin and 100 μg/ml streptomycin. C2C12 cells were seeded at 7,000 cells per well on 96-well plates and cultured to confluence. Once the cell reached confluence the media was changed to DMEM (1 g/L glucose) supplemented with 2% HS with 100 IU/ml penicillin and 100 μg/ml streptomycin and maintained at 37° C. in a humidified atmosphere of 5% CO2/95% air. 5 days post-induction of differentiation fresh DMEM (1 g/L glucose) supplemented with 2% HS with 100 IU/ml penicillin and 100 μg/ml streptomycin was added to cultures. Cells were maintained at 37° C. in a humidified atmosphere of 5% CO2 and 95% air for 5 hours. After 5 hours test peptides at 10 μM or controls (0.5 mM or 1 mM metformin in 1% DMSO) prepared in fresh differentiation medium were added to cells and the cultures were maintained at 37° C. in a humidified atmosphere of 5% CO2/95% air for 18-22 hours. At the end of the incubation culture media was removed from the cells and the remaining glucose concentration was measured using a Glucose Assay kit (Abcam) according to the manufacturer's instructions, using a Cytation 3 plate reader at 570 nm (BioTek, Winooski, VT). Glucose concentrations in the medium were calculated relative to 0.1% DMSO treated control cells. The relative standard deviation of the result for the 0.1% DMSO treated control was <20%. Metformin was used as a positive control for reduction of glucose levels (increased glucose utilization glucose levels for treatment with metformin (1 mM) treatment were <20% of the 0.1% DMSO treated control value. The results are reported in Table 11.

Series [1] in a line: PrestoBlue cell viability assay. In kind it is cell-based. The following applies: human; read-out: Cell viability, % of background corrected DMSO control value. The procedure:
The effect of the peptides on cell viability can be assessed in cultured cells using suitable assay of viability such as the PrestoBlue® assay (Thermo Fisher Scientific, Waltham, MA). Peptides were initially prepared as 10 mM stock in DMSO and tested at a final concentration of 10 μM (0.1% DMSO). […] PrestoBlue Assay Reagent was purchased from Thermo Fisher Scientific. A172 human brain glioblastoma cell line was purchased from American Type Culture Collection (Manassas, VA). A172 cells were grown in DMEM supplemented with 10% FBS with 100 IU/ml penicillin and 100 μg/ml streptomycin. Cultures were maintained at 37° C. in a humidified atmosphere of 5% CO2/95% air. A172 cells were seeded at 8,000 cells per well on 96-well plates. […] Cell viability was determined using a PrestoBlue Assay reagent […] according to the manufacturer's instructions. Absorption for each sample well on the plate was measured using a Cytation 3 plate reader at 560 nm and 590 nm (BioTek, Winooski, VT). Activity was calculated relative to 0.1% DMSO untreated control. Treatment with 0.1% DMSO alone was used as the cell viability activity control. The relative standard deviation of the DMSO control was <5%.

Series [2] relates to SH-SY5Y Neuroblastoma Cells. The experiment in a line: ATP levels (CellTiter-Glo). In kind it is cell-based, human. The following applies: staurosporine 1 μM, 18-20 hours. Here is the method:
The effect of the peptides on cellular metabolism can be assessed using an assay of ATP levels in cultured cells such as human neuroblastoma cells. Peptides were initially prepared as 10 mM stock in DMSO and used at a final concentration of 10 μM (0.1% DMSO). […] CellTiter-Glo® Assay kit was purchased from Promega. SH-SY5Y human bone marrow neuroblastoma cell line was purchased from American Type Culture Collection (Manassas, VA) and licensed from Memorial Sloan-Kettering Cancer Center (New York, NY). SH-SY5Y cells were grown in DMEM/F12 medium supplemented with 10% FBS with 100 IU/ml penicillin and 100 μg/ml streptomycin. Cultures were maintained at 37° C. in a humidified atmosphere of 5% CO2/95% air. SH-SY5Y cells were seeded at 30,000 cells per well on 96-well plates. […] ATP levels were determined using a CellTiter-Glo Assay kit (Promega) according to the manufacturer's instructions. Luminescence for each sample well on the plate was measured using a Cytation 3 plate reader (BioTek, Winooski, VT). Activity was calculated relative to 0.1% DMSO treated control. The relative standard deviation of the result for the 0.1% DMSO treated control was <5%.
(In general: Cellular ATP, detected with luciferase, serves as a proxy for viable cell number.)

A further series concerns 3T3-L1 Mouse Adipocytes. The experiment in a line: Free fatty acid levels in cultured mouse adipocytes stimulated with isoproterenol. In kind it is cell-based. The settings on record: insulin 100 nM, 3 hours with 1 nM isoproterenol. Here is the method:
The effect of the peptides on fatty acid metabolism can be assessed using an assay of free fatty acid levels in cultured cells such as mouse adipocytes. Peptides were initially prepared as 10 mM stock in DMSO and used at a final concentration of 10 μM (0.1% DMSO). […] Mouse 3T3-L1 cells purchased from ZenBio were seeded at 3,000 cells per well in 96-well plates in Pre-adipocyte Medium (Zen-Bio) and grown to confluence at 37° C. in a humidified atmosphere of 5% CO2/95% air. Two days after confluence, cells were placed in Adipocyte Differentiation Medium (Zen-Bio) and cultured for three additional days at 37° C. in a humidified atmosphere of 5% CO2/95% air. The culture media was then replaced with Adipocyte Maintenance Medium (Zen-Bio) and the cells maintained for an additional 9-12 days at 37° C. in a humidified atmosphere of 5% CO2/95% air with partial medium replacement every other day. Following 12-15 days of differentiation, test peptides were added at a final concentration of 10 μM in 0.1% DMSO and incubated for 20-22 hours in Adipocyte Maintenance Medium at 37° C. in a humidified atmosphere of 5% CO2/95% air. After 20-22 hours, 1 nM isoproterenol was added to all wells except untreated controls and test peptides were replenished. Insulin at 100 nM was added to control wells. Cells were incubated for 3 hours in Assay Buffer (Zen-Bio) at 37° C. in a humidified atmosphere of 5% CO2/95% air. Free fatty acid concentrations in the media were determined using a Free Fatty Acid Assay kit (Zen-Bio) according to the manufacturer's instructions using a Cytation 3 plate reader at 540 nm (BioTek, Winooski, VT). Absorbance values were corrected for untreated background and expressed relative to isoproterenol treated cells. Treatment with isoproterenol (1 nM) alone was used as the free fatty acid level stimulatory control. The relative standard deviation of the isoproterenol control was <10%. […] Free fatty acid levels for insulin (100 nM) treatment were <5% of the isoproterenol control value.

`CN(C)C(=N)N=C(N)N` [Metformin, reference compound]: the “Glucose levels, % of the 0.1% DMSO treated control value” in the series with C2C12 Mouse Myoblasts is below 20%.

As for `CN[C@@H]1C[C@H]2O[C@@](C)([C@@H]1OC)n1c3ccccc3c3c4c(c5c6ccccc6n2c5c31)C(=O)NC4` [Staurosporine, reference compound], the viability at 1 µM in series [1] was below 75%. The “ATP levels, % of the 0.1% DMSO treated control value” in series [2] is given as below 5%.

Insulin [reference compound]: the “Free fatty acid levels, % of the isoproterenol control value” in the series on 3T3-L1 Mouse Adipocytes is recorded as below 5%.
